Values after ≈ are worked out from the molar mass of the structure shown. Blank lines part the entries; values can stand above or below the compound they belong to. Active and inactive are the calls of the source. The calls are words filed in the database; no cut-off is given here. Non-standard residues stand in square brackets, D forms with d. Residues, ends and D or L forms follow the SMILES beside them. *: point of attachment. NMeF = CN[C@@H](Cc1ccccc1)C(=O)O; NMeL = CN[C@@H](CC(C)C)C(=O)O; NHPhenethyl = c1ccc(CCN*)cc1; NMeV = CN[C@H](C(=O)O)C(C)C; NMeA = CN[C@@H](C)C(=O)O
How the values were obtained:
[1] = tested on: Trypanosoma brucei rhodesiense; test: Antiprotozoal activity against trypomastigote stage of Trypanosoma brucei rhodesiense STIB900 after 72 hrs by Alamar Blue assay; type: functional, organism-based; conditions: for IC50: STIB900, 72 h
Plasmodium falciparum = test: Antiprotozoal activity against IEF stage of Plasmodium falciparum NF54 after 48 hrs by [3H]-hypoxanthine incorporation assay; type: functional, organism-based
[2] = Passive permeability of the compound at 500 uM after 5 hrs by PAMPA; type: ADME
[3] = Half life in Galleria mellonella hemolymph plasma at 0.5 mM by HPLC-MS method; type: ADME, cell-free
Escherichia coli = test: Antibacterial activity against Escherichia coli ATCC 25922 assessed as growth inhibition up to 128 ug/ml; type: functional, organism-based
Staphylococcus aureus [4] = test: Antibacterial activity against methicillin-resistant Staphylococcus aureus ATCC 43300 assessed as growth inhibition up to 128 ug/ml; type: functional, organism-based
Staphylococcus aureus [5] = test: Antibacterial activity against Staphylococcus aureus ATCC 29213 assessed as growth inhibition up to 128 ug/ml; type: functional, organism-based
Enterococcus faecalis = test: Antibacterial activity against Enterococcus faecalis ATCC 29212 assessed as growth inhibition up to 128 ug/ml; type: functional, organism-based
Pseudomonas aeruginosa = test: Antibacterial activity against Pseudomonas aeruginosa ATCC 27853 assessed as growth inhibition up to 128 ug/ml; type: functional, organism-based
Micrococcus luteus = test: Antibacterial activity against Micrococcus luteus ATCC 9341 assessed as growth inhibition up to 128 ug/ml; type: functional, organism-based

SMILES: CC(C)C[C@@H](N)C(=O)N[C@H](CC(C)C)C(=O)N[C@H](CC(C)C)C(=O)N[C@H](CC(C)C)C(=O)NCCc1ccccc1
IC50 [1]: 1.4 to 2.1 µg/mL (≈ 2.44 to 3.66 µM)

SMILES: CN[C@H](CC(C)C)C(=O)N(C)[C@H](CC(C)C)C(=O)N(C)[C@H](CC(C)C)C(=O)N(C)[C@H](CC(C)C)C(=O)NCCc1ccccc1
IC50 [1]: 1.4 to 2.1 µg/mL (≈ 2.22 to 3.33 µM)

SMILES: CCC(C)[C@H]1NC(=O)[C@@H](C(C)C)NC(=O)[C@H]([C@@H](C)O)NC(=O)[C@H](Cc2c[nH]c3ccccc23)NC(=O)[C@@H](NC(C)=O)[C@@H](C)OC(=O)[C@H](CC(C)C)NC1=O (some centres undefined)
IC50 [1]: 31.6 µg/mL (≈ 41.9 µM)

SMILES: CN[C@@H](CC(C)C)C(=O)N(C)[C@H](CC(C)C)C(=O)N(C)[C@@H](CC(C)C)C(=O)N(C)[C@@H](CC(C)C)C(=O)NCCc1ccccc1
IC50 [1]: 1.4 to 2.1 µg/mL (≈ 2.22 to 3.33 µM)

SMILES: CC(C)C[C@@H](NC=O)C(=O)N[C@@H]1C(=O)N[C@H](Cc2ccccc2)C(=O)N[C@H](C(C)C)C(=O)N[C@@H](Cc2ccc(O)cc2)C(=O)N[C@@H](Cc2c[nH]c3ccccc23)C(=O)O[C@@H]1C
IC50 (Plasmodium falciparum): 0.995 µg/mL (≈ 1.19 µM)

SMILES: CC(C)C[C@@H](N)C(=O)N[C@@H](CC(C)C)C(=O)N(C)[C@@H](CC(C)C)C(=O)N(C)[C@@H](CC(C)C)C(=O)NCCc1ccccc1
IC50 [1]: 1.4 to 2.1 µg/mL (≈ 2.33 to 3.49 µM)

SMILES: CN[C@@H](CC(C)C)C(=O)N(C)[C@@H](CC(C)C)C(=O)N(C)[C@@H](CC(C)C)C(=O)N(C)[C@@H](CC(C)C)C(=O)N(C)[C@@H](CC(C)C)C(=O)NCCc1ccccc1
Activity [1]: Active

SMILES: CC(C)C[C@H](NC(=O)[C@@H](NC(=O)[C@@H](NC(=O)[C@@H](N)C(C)C)C(C)C)C(C)C)C(=O)NCCc1ccccc1 (H-VVVL-NHPhenethyl)
permeability [2]: Impermeable
half-life at 500 µM [3]: 30 min

SMILES: CN[C@@H](C)C(=O)N(C)[C@@H](CC(C)C)C(=O)N(C)[C@@H](CC(C)C)C(=O)N(C)[C@@H](CC(C)C)C(=O)NCCc1ccccc1 (H-[NMeA][NMeL][NMeL][NMeL]-NHPhenethyl)
IC50 (Plasmodium falciparum): 1.85 µg/mL (≈ 3.15 µM)

SMILES: CN[C@@H](Cc1ccccc1)C(=O)N(C)[C@@H](Cc1ccccc1)C(=O)N(C)[C@@H](Cc1ccccc1)C(=O)N(C)[C@@H](Cc1ccccc1)C(=O)NCCc1ccccc1 (H-[NMeF][NMeF][NMeF][NMeF]-NHPhenethyl)
Activity [1]: Active

SMILES: CN[C@@H](Cc1ccccc1)C(=O)N(C)[C@@H](Cc1ccccc1)C(=O)N(C)[C@@H](Cc1ccccc1)C(=O)N(C)[C@@H](Cc1ccccc1)C(=O)N(C)[C@@H](Cc1ccccc1)C(=O)NCCc1ccccc1 (H-[NMeF][NMeF][NMeF][NMeF][NMeF]-NHPhenethyl)
growth inhibition (GI) (Escherichia coli): inactive
growth inhibition (GI) (Staphylococcus aureus [4]): inactive
IC50 (Plasmodium falciparum): 0.2 µg/mL (≈ 0.216 µM)
growth inhibition (GI) (Staphylococcus aureus [5]): inactive
Activity [1]: Active
growth inhibition (GI) (Enterococcus faecalis): inactive
growth inhibition (GI) (Pseudomonas aeruginosa): inactive
growth inhibition (GI) (Micrococcus luteus): inactive

Second part, the compound after the results:

IC50 [1]: 1.4 to 2.1 µg/mL (≈ 1.85 to 2.77 µM)
SMILES: CN[C@@H](CC(C)C)C(=O)N(C)[C@@H](CC(C)C)C(=O)N(C)[C@@H](CC(C)C)C(=O)N(C)[C@@H](CC(C)C)C(=O)N(C)[C@H](CC(C)C)C(=O)NCCc1ccccc1

IC50 [1]: 17.5 µg/mL (≈ 27.8 µM)
SMILES: CN[C@@H](CC(C)C)C(=O)N(C)[C@@H](CC(C)C)C(=O)N(C)[C@H](CC(C)C)C(=O)N(C)[C@@H](CC(C)C)C(=O)NCCc1ccccc1

IC50 [1]: 1.4 to 2.1 µg/mL (≈ 2.22 to 3.33 µM)
SMILES: CN[C@H](CC(C)C)C(=O)N(C)[C@@H](CC(C)C)C(=O)N(C)[C@@H](CC(C)C)C(=O)N(C)[C@@H](CC(C)C)C(=O)NCCc1ccccc1

permeability [2]: Impermeable
SMILES: CC(C)[C@H](N)C(=O)N[C@H](C(=O)N[C@H](C(=O)N[C@@H](Cc1ccccc1)C(=O)NCCc1ccccc1)C(C)C)C(C)C (H-VVVF-NHPhenethyl)

IC50 (Plasmodium falciparum): 0.14 µg/mL (≈ 0.159 µM)
SMILES: CN[C@@H](Cc1ccccc1)C(=O)N[C@H](C(=O)N(C)[C@H](C(=O)N(C)[C@H](C(=O)N(C)[C@H](C(=O)N(C)[C@@H](Cc1ccccc1)C(=O)NCCc1ccccc1)C(C)C)C(C)C)C(C)C)C(C)C (H-[NMeF]V[NMeV][NMeV][NMeV][NMeF]-NHPhenethyl)

— ChEMBL document CHEMBL4177762, “Combined Approach of Backbone Amide Linking and On-Resin N-Methylation for the Synthesis of Bioactive and Metabolically Stable Peptides” (J Med Chem, 2018)
